# Test results reported in paper PMC4838552 (ChemMedChem, 2016).
# How the values were obtained:
# RPA70N = RPA70N (Homo sapiens, UniProt P27694); test: FPA competition assay; type: binding; conditions: for LE (ligand efficiency): LE = 1.4*pKd/HAC, using the FPA data
# Protein binding study = type: in vitro ADME
# [1] = Caco-2 permeability study; type: in vitro ADME; conditions: human
# [2] = biological target: ssDNA binding to RPA70AB in the RPA70NAB construct (Homo sapiens, UniProt P27694); test: Fluorescence-based DNA binding assay; conditions: Kd for ssDNA binding to RPA70AB in RPA70NAB, absence vs presence of compound
LE (ligand efficiency) (RPA70N),fraction unbound (Protein binding study),Papp A→B [1] [×10⁻⁶ cm/s],effect on ssDNA binding to RPA [2],potency relative to 11 (fold less potent) (RPA70N; compared with compound 11),Compound
0.27,0.002,29.2,does not affect ssDNA binding to RPA,,"Cc1ccc(C(=O)Nc2cc(Br)ccc2C(=O)O)cc1S(=O)(=O)Nc1ccc(Cl)c(Cl)c1 [Compound 20c, 4-Bromo-2-(3-(N-(3,4-dichlorophenyl)sulfamoyl)-4-methylbenzamido)benzoic acid]"
0.21,,,,equipotent,"Cc1ccc(C(=O)Nc2ccccc2C(=O)O)cc1S(=O)(=O)Nc1cccc(Cl)c1 [Compound 18, 2-(3-(N-(3-chlorophenyl)sulfamoyl)-4-methylbenzamido)benzoic acid]"
0.21,,,,,"Cc1ccc(C(=O)Nc2ccccc2C(=O)O)cc1S(=O)(=O)Nc1ccc(Br)cc1 [Compound 11, 2-(3-(N-(4-bromophenyl)sulfamoyl)-4-methylbenzamido)benzoic acid]"
